Assay results published in patent publication US12410207B2, “Galactoside inhibitor of galectins” (GALECTO BIOTECH AB, priority 2019, dated 2025).

Columns and labels:
galectins = conditions: cited from earlier work
Galectin-1 = Galectin-1 (Homo sapiens, UniProt P09382); experiment: Fluorescence anisotropy assay, inhibition of galectin / fluorescein tagged saccharide probe interaction; conditions: compound as inhibitor of probe binding
Method: (§1) The affinity of Example 1-45 for galectins were determined by a fluorescence anisotropy assay where the compound was used as an inhibitor of the interaction between galectin and a fluorescein tagged saccharide probe as described Sörme, P., Kahl-Knutsson, B., Huflejt, M., Nilsson, U. J., and Leffler H. (2004) Fluorescence polarization as an analytical tool to evaluate galectin-ligand interactions. Anal. Biochem. 334: 36-47, (Sorme et al., 2004) and Monovalent interactions of Galectin-1 By Salomonsson, Emma; Larumbe, Amaia; Tejler, Johan; Tullberg, Erik; Rydberg, Hanna; Sundin, Anders; Khabut, Areej; Frejd, Torbjorn; Lobsanov, Yuri D.; Rini, James M.; et al, From Biochemistry (2010), 49(44), 9518-9532, (Salomonsson et al., 2010).

Galectin-3 = Galectin-3 (Homo sapiens, UniProt P17931); experiment: as above; conditions: compound as inhibitor of probe binding
Method: as §1

MDR1 = experiment: MDCK-MDR1 in vitro cell model of passage over Blood Brain Barrier; type: in vitro ADME; conditions: dog
MDCK-MDR1 = experiment: as above; type: in vitro ADME; conditions: MDCK-MDR1, result in words
[1] = In vivo mouse pharmacokinetic experiment (plasma and brain)
Method: FIG. 1 compares the mean plasma levels after IV and PO administration
FIG. 2 compares the mean brain tissue concertation after IV and PO administration
The ratio between exposure of example 35 in brain compared to plasma is determined to AUCbrain/AUCplasma=0.19 after oral administration. (AUC=area under the curve)

[2] = MDCK-MDR1, first column, headed A > B
[3] = MDCK-MDR1, second column, also headed A > B

Sequence of Galectin-1 (P09382 whole entry, species assumed): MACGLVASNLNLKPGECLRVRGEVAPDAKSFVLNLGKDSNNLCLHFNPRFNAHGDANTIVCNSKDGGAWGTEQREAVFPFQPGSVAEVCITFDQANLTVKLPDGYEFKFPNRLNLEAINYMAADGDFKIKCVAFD
Sequence of Galectin-3 (P17931 whole entry, species assumed): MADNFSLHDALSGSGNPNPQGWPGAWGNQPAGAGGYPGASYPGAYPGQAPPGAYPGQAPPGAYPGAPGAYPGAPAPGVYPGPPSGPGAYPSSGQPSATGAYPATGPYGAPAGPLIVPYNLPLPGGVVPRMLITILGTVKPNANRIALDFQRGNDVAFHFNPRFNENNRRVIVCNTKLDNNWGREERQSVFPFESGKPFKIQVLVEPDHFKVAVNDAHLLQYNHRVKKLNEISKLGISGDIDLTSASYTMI

| SMILES | affinity, times lower than lactose (galectins; relative to lactose) | Kd (Galectin-1) [µM] | Kd (Galectin-3) [µM] | Papp (MDR1; [2]) [×10⁻⁶ cm/s] | Papp (MDR1; [3]) [×10⁻⁶ cm/s] | efflux and uptake in in vitro cell model of BBB passage (MDCK-MDR1) | systemic bioavailability ([1]; IV 1 mg/kg and PO 10 mg/kg, FIG. 1) | exposure in brain ([1]; IV 1 mg/kg and PO 10 mg/kg, FIG. 2) | Kp ([1]; brain (relative to plasma), after oral administration (PO 10 mg/kg), read-out: AUCbrain/AUCplasma) | Kd (galectins; reviewed by Leffler 2001, Leffler et al. 2004, read-out: Kd, all galectins) [µM] |
| --- | --- | --- | --- | --- | --- | --- | --- | --- | --- | --- |
| O=C[C@H](O)[C@@H](O)[C@@H](O)[C@H](O)CO [D-galactose] | 50-100 times |  |  |  |  |  |  |  |  |  |
| OCC1O[C@H](Sc2cncc(Cl)c2)C(O)C(n2cc(-c3cc(F)c(Cl)c(F)c3)cn2)[C@H]1O (stereo partly drawn) [Example 2, 5-Chloropyridin-3-yl 3-[4-(4-chloro-3,5-difluorophenyl)-1H-1,2-pyrazol-1-yl]-3-deoxy-1-thio-α-D-galactopyranoside] |  | 27.6 | 0.02 | 25 | 50 | low or no efflux and high uptake |  |  |  |  |
| OCC1O[C@H](Sc2cncc(Cl)c2)C(O)C(n2cc(-c3cc(F)c(F)c(F)c3)cn2)[C@H]1O (stereo partly drawn) [Example 3, 5-Chloropyridin-3-yl 3-deoxy-3-[4-(3,4,5-trifluorophenyl)-1H-1,2-pyrazol-1-yl]-1-thio-α-D-galactopyranoside] |  | 12.8 | 0.028 | 14 | 39 | low or no efflux and high uptake |  |  |  |  |
| OCC1O[C@H](Sc2cncc(Br)c2)C(O)C(n2cc(-c3cc(F)c(Cl)c(F)c3)cn2)[C@H]1O (stereo partly drawn) [Example 6, 5-Bromopyridin-3-yl 3-[4-(4-chloro-3,5-difluorophenyl)-1H-1,2-pyrazol-1-yl]-3-deoxy-1-thio-α-D-galactopyranoside] |  | 23 | 0.016 | 18 | 52 | low or no efflux and high uptake |  |  |  |  |
| N#Cc1ncc(Cl)cc1S[C@H]1OC(CO)[C@H](O)C(n2cc(-c3cc(F)c(F)c(F)c3)cn2)C1O (stereo partly drawn) [Example 12, 5-Chloro-2-cyanopyridin-3-yl 3-deoxy-3-[4-(3,4,5-trifluorophenyl)-1H-1,2-pyrazol-1-yl]-1-thio-α-D-galactopyranoside] |  | 8.2 | 0.021 | 12 | 51 | low or no efflux and high uptake |  |  |  |  |
| N#Cc1ncc(Br)cc1S[C@H]1OC(CO)[C@H](O)C(n2cc(-c3cc(F)c(F)c(F)c3)cn2)C1O (stereo partly drawn) [Example 15, 5-Bromo-2-cyanopyridin-3-yl 3-deoxy-3-[4-(3,4,5-trifluorophenyl)-1H-1,2-pyrazol-1-yl]-1-thio-α-D-galactopyranoside] |  | 4.8 | 0.011 | 12 | 53 | low or no efflux and high uptake |  |  |  |  |
| OCC1O[C@H](Sc2cncc(Cl)c2)C(O)C(n2cc(-c3ccc(Cl)c(F)c3)cn2)[C@H]1O (stereo partly drawn) [Example 17, 5-Chloropyridin-3-yl 3-[4-(4-chloro-3-fluorophenyl)-1H-1,2-pyrazol-1-yl]-3-deoxy-1-thio-α-D-galactopyranoside] |  | 19.7 | 0.029 | 28 | 49 | low or no efflux and high uptake |  |  |  |  |
| COC1C(n2cc(-c3cc(F)c(F)c(F)c3)cn2)[C@@H](O)C(CO)O[C@@H]1Sc1cncc(Cl)c1 (stereo partly drawn) [Example 32, 5-Chloropyridin-3-yl 3-deoxy-3-[4-(3,4,5-trifluorophenyl)-1H-1,2-pyrazol-1-yl]-2-O-methyl-1-thio-α-D-galactopyranoside] |  | 6.7 | 0.017 | 30 | 33 | low or no efflux and high uptake |  |  |  |  |
| COC1C(n2cc(-c3cc(F)c(F)c(F)c3)cn2)[C@@H](O)C(CO)O[C@@H]1Sc1cncc(Br)c1 (stereo partly drawn) [Example 33, 5-Bromopyridin-3-yl 3-deoxy-3-[4-(3,4,5-trifluorophenyl)-1H-1,2-pyrazol-1-yl]-2-O-methyl-1-thio-α-D-galactopyranoside] |  | 3.6 | 0.022 | 34 | 23 | low or no efflux and high uptake |  |  |  |  |
| C#Cc1cncc(S[C@H]2OC(CO)[C@H](O)C(n3cc(-c4cc(F)c(F)c(F)c4)cn3)C2OC)c1 (stereo partly drawn) [Example 34, 5-Ethynylpyridin-3-yl 3-deoxy-3-[4-(3,4,5-trifluorophenyl)-1H-1,2-pyrazol-1-yl]-2-O-methyl-1-thio-α-D-galactopyranoside] |  | 16.5 | 0.023 | 35 | 37 | low or no efflux and high uptake |  |  |  |  |
| COC1C(n2cc(-c3cc(F)c(F)c(F)c3)cn2)[C@@H](O)C(CO)O[C@@H]1Sc1cc(Cl)cnc1C#N (stereo partly drawn) [Example 35, 5-Chloro-2-cyanopyridin-3-yl 3-deoxy-3-[4-(3,4,5-trifluorophenyl)-1H-1,2-pyrazol-1-yl]-2-O-methyl-1-thio-α-D-galactopyranoside] |  | 3.1 | 0.014 | 23 | 35 | low or no efflux and high uptake | excellent systemic bioavailability | good exposure in brain | 0.19 |  |
| OC[C@H]1O[C@H](Sc2ccc(Cl)c(Cl)c2)[C@H](O)[C@@H](c2nc(-c3cc(F)c(F)c(F)c3)cs2)[C@H]1O [Example 40, 3,4-Dichlorophenyl 3-deoxy-3-[4-(3,4,5-trifluorophenyl)-thiazol-2-yl]-1-thio-α-D-galactopyranoside] |  | > 100 | 2 |  |  |  |  |  |  |  |
| OC[C@H]1O[C@H](Sc2ccc(Cl)c(Cl)c2)[C@H](O)[C@@H](c2nnc(-c3cc(F)c(F)c(F)c3)o2)[C@H]1O [Example 41, 3,4-Dichlorophenyl 3-deoxy-3-[5-(3,4,5-trifluorophenyl)-1,3,4-oxadiazol-2-yl]-1-thio-α-D-galactopyranoside] |  | > 100 | 1.2 |  |  |  |  |  |  |  |
| COC1C(n2cc(-c3csc(O)n3)cn2)[C@@H](O)C(CO)O[C@@H]1Sc1ccc(Cl)c(Cl)c1 (stereo partly drawn) [Example 42, 3,4-Dichlorophenyl 3-deoxy-3-[4-(2-hydroxythiazol-4-yl)-1H-1,2-pyrazol-1-yl]-2-O-methyl-1-thio-α-D-galactopyranoside] |  | 0.18 | 63 |  |  |  |  |  |  |  |
| COC1C(n2cc(-c3csc(N)n3)cn2)[C@@H](O)C(CO)O[C@@H]1Sc1ccc(Cl)c(Cl)c1 (stereo partly drawn) [Example 43, 3,4-Dichlorophenyl 3-[4-(2-aminothiazol-4-yl)-1H-1,2-pyrazol-1-yl]-3-deoxy-2-O-methyl-1-thio-α-D-galactopyranoside] |  | 2.1 | 11 |  |  |  |  |  |  |  |
| COC1C(n2cc(-c3cc(F)c(Cl)c(F)c3)cn2)[C@@H](O)C(CO)O[C@@H]1Sc1cc(Cl)ccc1C#N (stereo partly drawn) [Example 44, 5-Chloro-2-cyanophenyl 3-[4-(4-chloro-3,5-difluorophenyl)-1H-1,2-pyrazol-1-yl]-3-deoxy-2-O-methyl-1-thio-α-D-galactopyranoside] |  | 50 | 0.04 |  |  |  |  |  |  |  |
| COC1C(n2cc(-c3cc(F)c(F)c(F)c3)cn2)[C@@H](O)C(CO)O[C@@H]1Sc1cc(Cl)ccc1C#N (stereo partly drawn) [Example 45, 5-Chloro-2-cyanophenyl 3-deoxy-3-[4-(3,4,5-trifluorophenyl)-1H-1,2-pyrazol-1-yl]-2-O-methyl-1-thio-α-D-galactopyranoside] |  | 8.5 | 0.03 |  |  |  |  |  |  |  |
| OC[C@H]1O[C@@H](O[C@H]2[C@H](O)[C@@H](O)C(O)O[C@@H]2CO)[C@H](O)[C@@H](O)[C@H]1O (stereo partly shown) [lactose] |  |  |  |  |  |  |  |  |  | 500 to 1000 |
